Laboratory results as given in PMC4805251, “Novel Antimicrobial Peptides EeCentrocins 1, 2 and EeStrongylocin 2 from the Edible Sea Urchin Echinus esculentus Have 6-Br-Trp Post-Translational Modifications” (PLoS ONE, 2016).
Where two headings read alike, the source gives them in different places. Ends that are not written are not given here.

Columns and labels:
Format in all cases: cell-based
[1] = system: Bacillus subtilis (ATCC 23857)
From the text: (§1) Organic phase extract, SPE eluates and HPLC-fractions were screened for antibacterial activity against two strains of Gram-positive and two strains of Gram-negative bacteria; Corynebacterium glutamicum (ATCC 13032), Staphylococcus aureus (ATCC 9144), Pseudomonas aeruginosa #1 (ATCC 27853) and Escherichia coli #1 (ATCC 25922). For extended antimicrobial bioactivity screening, the following bacterial strains were used, three strains of Gram-positive bacteria; S. epidermidis #1 (5179-R1) kindly provided by Holger Rohde, S. epidermidis #2, RP62A (ATCC 35984) and Bacillus subtilis (ATCC 23857) in addition to the Gram-negative P. aeruginosa #2, PA 01 (ATCC 15692, DSM 19880) and E. coli #2, NR 698 (MC4100/ptD4213).
(§2) Cultures stored at -80°C were smeared onto agar plates and cultured for 24 h at 35°C. One colony of each bacterial strain was transferred to 5 ml liquid Müller-Hinton (MH, Difco, Lawrence, KS, USA) medium in a glass tube and left shaking at room temperature overnight at 600 rpm. The cultures of actively growing bacteria (20 μl) were further inoculated in 5 ml MH medium and left shaking for 2 h at room temperature. The antibacterial assays were performed as previously described by. Briefly, the bacterial cultures were diluted with medium to 1.3–1.5 × 10^4 bacteria/ml final concentrations and an aliquot of 50 μl was added to each well in 96-well Nunclon^TM microtiter plates (Nagle Nunc Int., Denmark) preloaded with 50 μl test sample solutions, i.e. extracts, eluates or peptides.
(§3) The test plates were incubated for 24 h at 35°C with optical density (OD595) recorded every hour using an Envision 2103 multilabel reader, controlled by the Wallac Envision manager (PerkinElmer, CT, USA). Antibacterial activity was defined as a sample showing >90% inhibition (as measured by optical density) compared to the negative (growth) controls, consisting of bacteria and water. Oxytetracycline (20 μM) served as a positive (inhibition) control. The minimum inhibitory concentration (MIC) was defined as the lowest concentration of a sample displaying >90% inhibition.
(§4) ACN-phases and SPE eluates were tested with two-fold serial dilutions ranging from 5.0 to 0.005 mg/ml (5.0, 2.5, 1.25, 0.63, 0.31, 0.16, 0.08, 0.04, 0.02, 0.01, 0.005 mg/ml) whereas HPLC-fractions were tested undiluted for antibacterial activity. Pure, native peptides and synthetic peptides (described in section 2.11) were tested for antimicrobial activity in concentrations ranging from 100 to 0.1 μM in two-fold serial dilutions (100, 50, 25, 12.5, 6.25, 3.13, 1.56, 0.78, 0.39, 0.20, 0.10 μM). Antimicrobial assays involving natural peptides (i.e. fractionated natural material) were run only once due to limited quantities, whereas all other assays were run in triplicates.

[2] = system: Corynebacterium glutamicum (ATCC 13032)
From the text: as §1, §2, §3, §4

[3] = system: E. coli #2, NR 698 (MC4100/ptD4213)
From the text: as §1, §2, §3, §4

[4] = system: Escherichia coli #1 (ATCC 25922)
From the text: as §1, §2, §3, §4

[5] = system: P. aeruginosa #2, PA 01 (ATCC 15692, DSM 19880)
From the text: as §1, §2, §3, §4

[6] = system: Pseudomonas aeruginosa #1 (ATCC 27853)
From the text: as §1, §2, §3, §4

[7] = system: S. epidermidis #1 (5179-R1)
From the text: as §1, §2, §3, §4

[8] = system: S. epidermidis #2, RP62A (ATCC 35984)
From the text: as §1, §2, §3, §4

[9] = system: Staphylococcus aureus (ATCC 9144)
From the text: as §1, §2, §3, §4

[10] = system: Aureobasidium pullulans
Protocol: (§5) The synthetic peptides (see section 2.11) were also screened for antifungal activity against Candida albicans (ATCC 10231), Saccharomyces cerevisiae, Rhodotorula sp., Aureobasidium pullulans and Cladosporium sp. The antifungal assay was performed as described previously. Briefly, fungal spores were dissolved in potato dextrose broth (Difco, Lawrence, KS, USA) to a concentration of 4 × 10^5 spores/ml. The spores (50 μl) were inoculated on 96-well Nunclon^TM microtiter plates containing the synthetic peptides (50 μl) dissolved in MQ-H2O. […] MIC was defined as the lowest concentration of peptide giving no visible fungal growth. The negative (growth) control contained medium and fungal solution.
as §4

[11] = system: Candida albicans (ATCC 10231)
Protocol: as §5, §4

[12] = system: Cladosporium sp.
Protocol: as §5, §4

[13] = system: Rhodotorula sp.
Protocol: as §5, §4

[14] = system: Saccharomyces cerevisiae
Protocol: as §5, §4

[15] = system: Gram-positive and Gram-negative bacteria (tested strains); conditions: 24 h
From the text: as §1, with “(MC4100/ptD4213). […]” for “(MC4100/ptD4213).”
The test plates were incubated for 24 h at 35°C with optical density (OD595) recorded every hour using an Envision 2103 multilabel reader, controlled by the Wallac Envision manager (PerkinElmer, CT, USA). […]
ACN-phases and SPE eluates were tested with two-fold serial dilutions ranging from 5.0 to 0.005 mg/ml (5.0, 2.5, 1.25, 0.63, 0.31, 0.16, 0.08, 0.04, 0.02, 0.01, 0.005 mg/ml) whereas HPLC-fractions were tested undiluted for antibacterial activity. […] Antimicrobial assays involving natural peptides (i.e. fractionated natural material) were run only once due to limited quantities, whereas all other assays were run in triplicates.

GWWRRTVDKVRNAGRKVAGFASKACGALGH [EeCentrocin 1 HC]
MIC B. subtilis ([1]; MH medium, 24 h at 35°C, OD595, lowest concentration with >90% inhibition, value of Table 2, synthetic peptides in triplicates): 1.56 µM | MIC raw data B. subtilis ([1]; parallel 1 of three): 1.56 µM | MIC raw data B. subtilis ([1]; parallel 2 of three): 1.56 µM | MIC raw data B. subtilis ([1]; parallel 3 of three): 0.78 µM | MIC C. glutamicum ([2]; ATCC 13032, 24 h): 0.39 µM | MIC raw data C. glutamicum ([2]; parallel 1 of three): 0.39 µM | MIC raw data C. glutamicum ([2]; parallel 2 of three): 0.39 µM | MIC raw data C. glutamicum ([2]; parallel 3 of three): 0.39 µM | MIC E. coli #2 ([3]; MH medium, 24 h at 35°C, OD595, >90% inhibition, value of Table 2, triplicates): 1.56 µM | MIC raw data E. coli #2 ([3]; parallel 1 of three): 1.56 µM | MIC raw data E. coli #2 ([3]; parallel 2 of three): 1.56 µM | MIC raw data E. coli #2 ([3]; parallel 3 of three): 1.56 µM | MIC E. coli #1 ([4]; ATCC 25922, 24 h): 0.78 µM | MIC raw data E. coli #1 ([4]; parallel 1 of three): 0.78 µM | MIC raw data E. coli #1 ([4]; parallel 2 of three): 0.78 µM | MIC raw data E. coli #1 ([4]; parallel 3 of three): 0.78 µM | MIC P. aeruginosa #2 ([5]; ATCC 15692, 24 h): 3.13 µM | MIC raw data P. aeruginosa #2 ([5]; parallel 1 of three): 3.13 µM | MIC raw data P. aeruginosa #2 ([5]; parallel 2 of three): 3.13 µM | MIC raw data P. aeruginosa #2 ([5]; parallel 3 of three): 3.13 µM | MIC P. aeruginosa #1 ([6]; MH medium, 24 h at 35°C, OD595, >90% inhibition, value of Table 2, native peptides run once, synthetic in triplicates): 1.56 µM | MIC raw data P. aeruginosa #1 ([6]; parallel 1 of three): 1.56 µM | MIC raw data P. aeruginosa #1 ([6]; parallel 2 of three): 1.56 µM | MIC raw data P. aeruginosa #1 ([6]; parallel 3 of three): 1.56 µM | MIC S. epidermidis #1 ([7]; #1 (5179-R1, 24 h)): 6.25 µM | MIC raw data S. epidermidis #1 ([7]; parallel 1 of three): 6.25 µM | MIC raw data S. epidermidis #1 ([7]; parallel 2 of three): 6.25 µM | MIC raw data S. epidermidis #1 ([7]; parallel 3 of three): 6.25 µM | MIC S. epidermidis #2 ([8]; ATCC 35984, 24 h): 3.13 µM | MIC raw data S. epidermidis #2 ([8]; parallel 1 of three): 3.13 µM | MIC raw data S. epidermidis #2 ([8]; parallel 2 of three): 3.13 µM | MIC raw data S. epidermidis #2 ([8]; parallel 3 of three): 3.13 µM | MIC S. aureus ([9]; ATCC 9144, 24 h): 3.13 µM | MIC raw data S. aureus ([9]; parallel 1 of three): 3.13 µM | MIC raw data S. aureus ([9]; parallel 2 of three): 3.13 µM | MIC raw data S. aureus ([9]; parallel 3 of three): 3.13 µM | MIC A. pullulans ([10]; 24 h): 12.5 µM | MIC raw data A. pullulans ([10]; parallel 1 of three): 12.5 µM | MIC raw data A. pullulans ([10]; parallel 2 of three): 12.5 µM | MIC raw data A. pullulans ([10]; parallel 3 of three): 12.5 µM | MIC C. albicans ([11]; ATCC 10231, 24 h): 100 µM | MIC raw data C. albicans ([11]; parallel 1 of three): 100 µM | MIC raw data C. albicans ([11]; parallel 2 of three): 100 µM | MIC raw data C. albicans ([11]; parallel 3 of three): 100 µM | MIC Cladosporium sp. ([12]; 24 h): >100 µM | MIC raw data Cladosporium sp. ([12]; parallel 1 of three): >100 µM | MIC raw data Cladosporium sp. ([12]; parallel 2 of three): >100 µM | MIC raw data Cladosporium sp. ([12]; parallel 3 of three): >100 µM | MIC raw data Rhodotorula sp. ([13]; parallel 1 of three): 12.5 µM | MIC raw data Rhodotorula sp. ([13]; parallel 2 of three): 12.5 µM | MIC raw data Rhodotorula sp. ([13]; parallel 3 of three): 12.5 µM | MIC Rhodotorula sp. ([13]; potato dextrose broth, 24 h at room temperature, visual, no visible fungal growth, value of Table 2, triplicates): 12.5 µM | MIC S. cerevisiae ([14]; 24 h): 50 µM | MIC raw data S. cerevisiae ([14]; parallel 1 of three): 50 µM | MIC raw data S. cerevisiae ([14]; parallel 2 of three): 50 µM | MIC raw data S. cerevisiae ([14]; parallel 3 of three): 50 µM | MIC range towards bacteria [15]: 0.39 to 6.25 µM
